Source: paper PMC11449226, “Characterization of a β-carotene isomerase from the cyanobacterium Cyanobacteria aponinum” (Philosophical Transactions of the Royal Society B: …, 2024)

Target: T1, CaD27 (Cyanobacterium aponinum, UniProt K9Z764)
T1 construct: gene Cyan10605_2981; thioredoxin fusion (pThio-Dan1-CaD27(-cTP)) in E. coli BL21(DE3) with pGro7 chaperones; crude lysate; Pfam PF13225 family
T1 sequence (K9Z764 1-216): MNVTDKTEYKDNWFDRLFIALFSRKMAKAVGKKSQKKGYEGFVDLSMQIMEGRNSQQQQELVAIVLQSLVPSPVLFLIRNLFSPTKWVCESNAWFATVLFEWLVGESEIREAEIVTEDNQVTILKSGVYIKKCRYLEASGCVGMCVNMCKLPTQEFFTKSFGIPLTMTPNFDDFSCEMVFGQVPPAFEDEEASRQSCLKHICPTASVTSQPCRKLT
Assay: isomerization assay, UHPLC
Assay type: biochemical
Settings: crude lysate of E. coli expressing thioredoxin-CaD27, compared with thioredoxin control

SMILES | isomerization assay, UHPLC (product 9-cis-beta-carotene) | isomerization assay, UHPLC (products 9-cis- and 13-cis-beta-carotene, also tested in beta-carotene-accumulating E. coli)
CC1=C(/C=C/C(C)=C/C=C/C(C)=C\C=C\C=C(C)\C=C\C=C(C)\C=C\C2=C(C)CCCC2(C)C)C(C)(C)CCC1 [13-cis-β-carotene] | thioredoxin-CaD27 converted 13-cis-β-carotene into 9-cis-β-carotene | 
CC1=C(/C=C/C(C)=C/C=C/C(C)=C/C=C/C=C(C)/C=C/C=C(C)/C=C/C2=C(C)CCCC2(C)C)C(C)(C)CCC1 [all-trans-β-carotene] |  | we only detected the isomerization of all-trans-β-carotene into 9-cis, and 13-cis-β-carotene
